Results taken from patent publication US11447466B2, “Substituted indole compounds useful as inhibitors of TLR7/8/9” (BRISTOL-MYERS SQUIBB COMPANY, priority 2017, dated 2022).

Experiments:
Format in all cases: cell-based
human TLR8 = target: T1, human TLR8 (Homo sapiens, UniProt Q9NR97); experiment: TLR8 inhibition reporter assay (HEK-Blue SEAP reporter, R848 stimulation); details: HEK-Blue cells overexpressing human TLR8, SEAP reporter, R848 15.9 μM, 22 hour incubation
T1 construct: host or cells: HEK-Blue cells
T1 sequence (Q9NR97 27-1041): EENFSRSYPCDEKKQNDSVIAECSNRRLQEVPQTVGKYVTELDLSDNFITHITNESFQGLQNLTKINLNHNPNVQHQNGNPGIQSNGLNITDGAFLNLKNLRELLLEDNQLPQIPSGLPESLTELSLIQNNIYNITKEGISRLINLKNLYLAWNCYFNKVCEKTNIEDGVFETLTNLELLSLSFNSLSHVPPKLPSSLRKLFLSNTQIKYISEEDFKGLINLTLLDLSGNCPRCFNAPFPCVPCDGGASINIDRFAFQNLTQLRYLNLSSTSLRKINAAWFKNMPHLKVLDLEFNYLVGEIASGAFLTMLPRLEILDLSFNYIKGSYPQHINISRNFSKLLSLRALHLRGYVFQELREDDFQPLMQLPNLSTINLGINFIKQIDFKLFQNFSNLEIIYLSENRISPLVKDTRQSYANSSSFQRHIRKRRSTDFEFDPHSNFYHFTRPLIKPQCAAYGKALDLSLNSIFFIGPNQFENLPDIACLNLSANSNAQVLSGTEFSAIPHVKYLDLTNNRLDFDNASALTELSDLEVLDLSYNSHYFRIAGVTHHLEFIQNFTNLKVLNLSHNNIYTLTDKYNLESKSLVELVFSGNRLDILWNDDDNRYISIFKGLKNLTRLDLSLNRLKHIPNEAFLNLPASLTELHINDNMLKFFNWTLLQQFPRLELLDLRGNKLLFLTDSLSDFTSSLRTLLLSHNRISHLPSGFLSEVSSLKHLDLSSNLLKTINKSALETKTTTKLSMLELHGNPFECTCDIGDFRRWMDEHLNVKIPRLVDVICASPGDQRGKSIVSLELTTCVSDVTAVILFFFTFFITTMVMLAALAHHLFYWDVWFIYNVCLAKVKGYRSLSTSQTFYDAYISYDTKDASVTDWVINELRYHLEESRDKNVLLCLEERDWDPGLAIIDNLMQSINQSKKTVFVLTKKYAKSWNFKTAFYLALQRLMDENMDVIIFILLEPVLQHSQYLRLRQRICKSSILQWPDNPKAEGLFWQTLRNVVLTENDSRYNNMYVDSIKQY
In short: (§1)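 Compound treatment: 30 min, RT, 0.05 nM–50 μM final. Agonist: TLR7 gardiquimod 7.5 μM; TLR8 R848 15.9 μM; TLR9 ODN2006 5 nM. Incubation 22 h, 37 °C, 5% CO2. Readout SEAP, HEK-Blue Detection.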

human TLR7 = target: T2, human TLR7 (Homo sapiens, UniProt Q9NYK1); experiment: TLR7 inhibition reporter assay (HEK-Blue SEAP reporter, gardiquimod stimulation); details: HEK-Blue cells overexpressing human TLR7, SEAP reporter, gardiquimod 7.5 μM, 22 hour incubation
T2 construct: host or cells: HEK-Blue cells
T2 sequence (Q9NYK1 27-1049): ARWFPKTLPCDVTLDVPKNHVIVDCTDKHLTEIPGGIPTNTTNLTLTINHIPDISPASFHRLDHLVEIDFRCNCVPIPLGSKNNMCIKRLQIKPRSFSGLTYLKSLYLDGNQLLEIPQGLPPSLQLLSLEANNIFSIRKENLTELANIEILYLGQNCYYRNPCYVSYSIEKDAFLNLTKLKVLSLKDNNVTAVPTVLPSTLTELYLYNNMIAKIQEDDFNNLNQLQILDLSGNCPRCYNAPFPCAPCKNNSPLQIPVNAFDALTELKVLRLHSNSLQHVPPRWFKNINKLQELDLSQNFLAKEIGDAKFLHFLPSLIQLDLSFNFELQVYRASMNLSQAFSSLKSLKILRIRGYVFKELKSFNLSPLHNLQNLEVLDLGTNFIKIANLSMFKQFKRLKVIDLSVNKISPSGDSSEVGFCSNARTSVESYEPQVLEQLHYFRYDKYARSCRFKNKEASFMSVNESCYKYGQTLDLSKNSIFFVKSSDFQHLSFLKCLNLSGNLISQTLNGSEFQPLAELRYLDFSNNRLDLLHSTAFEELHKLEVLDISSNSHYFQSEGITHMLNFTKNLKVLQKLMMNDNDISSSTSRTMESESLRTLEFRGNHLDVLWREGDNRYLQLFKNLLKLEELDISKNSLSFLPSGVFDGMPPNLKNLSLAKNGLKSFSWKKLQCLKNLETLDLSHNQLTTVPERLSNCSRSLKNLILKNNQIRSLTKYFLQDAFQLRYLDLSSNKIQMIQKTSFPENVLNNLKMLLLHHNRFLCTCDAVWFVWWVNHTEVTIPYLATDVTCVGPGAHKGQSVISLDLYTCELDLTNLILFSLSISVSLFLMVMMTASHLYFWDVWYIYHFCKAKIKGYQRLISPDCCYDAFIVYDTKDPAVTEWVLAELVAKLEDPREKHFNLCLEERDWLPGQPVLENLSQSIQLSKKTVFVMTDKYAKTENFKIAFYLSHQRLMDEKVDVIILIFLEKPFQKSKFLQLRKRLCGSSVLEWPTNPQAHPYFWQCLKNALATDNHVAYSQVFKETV
In short: as §1

human TLR9 = target: T3, human TLR9 (Homo sapiens, UniProt Q9NR96); experiment: TLR9 inhibition reporter assay (HEK-Blue SEAP reporter, ODN2006 stimulation); details: HEK-Blue cells overexpressing human TLR9, SEAP reporter, ODN2006 5 nM, 22 hour incubation
T3 construct: host or cells: HEK-Blue cells
T3 sequence (Q9NR96 26-1032): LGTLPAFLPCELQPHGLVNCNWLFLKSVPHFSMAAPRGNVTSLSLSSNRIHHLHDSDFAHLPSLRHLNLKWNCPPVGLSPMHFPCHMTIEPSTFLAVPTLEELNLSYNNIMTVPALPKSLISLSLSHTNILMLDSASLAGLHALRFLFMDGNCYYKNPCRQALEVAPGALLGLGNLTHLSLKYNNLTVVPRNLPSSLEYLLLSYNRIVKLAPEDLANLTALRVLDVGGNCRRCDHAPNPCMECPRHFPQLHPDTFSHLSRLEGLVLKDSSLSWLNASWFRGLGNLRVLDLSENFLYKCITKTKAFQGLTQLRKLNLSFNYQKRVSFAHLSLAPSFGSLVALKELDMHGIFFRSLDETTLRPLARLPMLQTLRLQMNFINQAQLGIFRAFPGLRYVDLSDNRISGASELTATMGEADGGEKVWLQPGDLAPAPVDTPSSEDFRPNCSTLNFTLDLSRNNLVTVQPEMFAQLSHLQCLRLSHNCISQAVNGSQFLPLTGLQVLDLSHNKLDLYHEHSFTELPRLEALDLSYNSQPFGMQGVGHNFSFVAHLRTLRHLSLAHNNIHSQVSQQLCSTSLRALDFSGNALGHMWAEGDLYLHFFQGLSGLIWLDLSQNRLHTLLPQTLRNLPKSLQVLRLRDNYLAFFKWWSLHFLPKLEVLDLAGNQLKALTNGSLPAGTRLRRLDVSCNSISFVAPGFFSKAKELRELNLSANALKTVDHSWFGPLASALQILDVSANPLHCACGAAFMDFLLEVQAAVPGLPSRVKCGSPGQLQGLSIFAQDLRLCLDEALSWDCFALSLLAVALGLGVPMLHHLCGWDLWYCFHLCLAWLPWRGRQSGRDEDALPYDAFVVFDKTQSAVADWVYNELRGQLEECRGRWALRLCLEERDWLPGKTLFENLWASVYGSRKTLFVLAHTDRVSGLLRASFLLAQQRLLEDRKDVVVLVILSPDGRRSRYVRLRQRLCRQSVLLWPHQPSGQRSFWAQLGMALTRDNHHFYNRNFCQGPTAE
In short: as §1

| SMILES | IC50 (human TLR8) | IC50 (human TLR7) | IC50 (human TLR9) |
| --- | --- | --- | --- |
| CCCN1CCC(c2ccc3[nH]c(-c4cc(-c5cncnc5)c(=O)n(CC)c4)c(C(C)C)c3c2)CC1 [Example 260, 1-ethyl-5-(3-isopropyl-5-(1-propylpiperidin-4-yl)-1H-indol-2-yl)-3-(pyrimidin-5-yl)pyridin-2(1H)-one] | 3.1 nM | 23.2 nM | 2240 nM |
| CNC(=O)CN1CCC(c2ccc3[nH]c(-c4cc(C)c(=O)n(C)n4)c(C(C)C)c3c2)CC1 [Example 118, 2-(4-(2-(1,5-dimethyl-6-oxo-1,6-dihydropyridazin-3-yl)-3-isopropyl-1H-indol-5-yl)piperidin-1-yl)-N-methylacetamide] | 14.5 nM | 18.6 nM | 9640 nM |
| Cc1cc(-c2[nH]c3ccc(C4CCN(C(C)(C)C(=O)O)CC4)cc3c2C(C)C)cn(C)c1=O [Example 148, 2-(4-(2-(1,5-dimethyl-6-oxo-1,6-dihydropyridin-3-yl)-3-isopropyl-1H-indol-5-yl)piperidin-1-yl)-2-methylpropanoic acid] | 364 nM | 193 nM | ≥ 50000 nM |
| Cc1nc(-c2[nH]c3ccc(C4CCN(C5CCCOC5)CC4)cc3c2C(C)C)cn(C)c1=O (stereo not drawn) [Example 187, 5-(3-isopropyl-5-(1-(tetrahydro-2H-pyran-3-yl)piperidin-4-yl)-1H-indol-2-yl)-1,3-dimethylpyrazin-2(1H)-one] | 30.1 nM | 85.4 nM | 655 nM |
| CC(C)c1c(-c2cc(-c3cncnc3)c(=O)n(C)c2)[nH]c2ccc(C3CCN(C)CC3)cc12 [Example 246, 5-(3-isopropyl-5-(1-methylpiperidin-4-yl)-1H-indol-2-yl)-1-methyl-3-(pyrimidin-5-yl)pyridin-2(1H)-one] | 1.7 nM | 2.9 nM | 387 nM |
| Cc1cc(-c2[nH]c3ccc(C4CCN(CC(=O)N(C)C)CC4)cc3c2C(C)C)cn(CC(F)(F)F)c1=O [Example 165, 2-(4-(3-isopropyl-2-(5-methyl-6-oxo-1-(2,2,2-trifluoroethyl)-1,6-dihydropyridin-3-yl)-1H-indol-5-yl)piperidin-1-yl)-N,N-dimethylacetamide] | 113 nM | 45.8 nM | 10100 nM |
| Cc1cc(-c2[nH]c3ccc(C4CCN(Cc5ncnn5C)CC4)cc3c2C(C)C)cn(C)c1=O [Example 198, 5-(3-isopropyl-5-(1-((1-methyl-1H-1,2,4-triazol-5-yl)methyl)piperidin-4-yl)-1H-indol-2-yl)-1,3-dimethylpyridin-2(1H)-one] | 13.4 nM | 9.1 nM | ≥ 50000 nM |
| Cc1cc(-c2[nH]c3ccc(C4CCN(C5CC(C)OC5=O)CC4)cc3c2C(C)C)cn(C)c1=O (stereo not drawn) [Example 149, 5-(3-isopropyl-5-(1-(5-methyl-2-oxotetrahydrofuran-3-yl)piperidin-4-yl)-1H-indol-2-yl)-1,3-dimethylpyridin-2(1H)-one] | 27.3 nM | 16 nM | 23200 nM |
| CC(C)c1c(-c2ccc(=O)n(C)c2)[nH]c2ccc(C3CCNCC3)cc12 [Example 1, 5-(3-isopropyl-5-(piperidin-4-yl)-1H-indol-2-yl)-1-methylpyridin-2(1H)-one] | 15.4 nM | 27.5 nM | 621 nM |
| COCc1cc(-c2[nH]c3ccc(C4CCN(C5CCOCC5)CC4)cc3c2C(C)C)cn(C)c1=O [Example 345, 5-(3-isopropyl-5-(1-(tetrahydro-2H-pyran-4-yl)piperidin-4-yl)-1H-indol-2-yl)-3-(methoxymethyl)-1-methylpyridin-2(1H)-one] | 16.9 nM | 11.1 nM | 7050 nM |
| CC(C)c1c(-c2cc(-c3ccc(F)nc3)c(=O)n(C)c2)[nH]c2ccc(C3CCN(C(C)C)CC3)cc12 [Example 342, 6′-fluoro-5-(3-isopropyl-5-(1-isopropylpiperidin-4-yl)-1H-indol-2-yl)-1-methyl-[3,3′-bipyridin]-2(1H)-one] | 16 nM | 12.9 nM | 3330 nM |
| Cc1cc(-c2[nH]c3ccc(C4CCN(C(C)c5cnn(C)c5)CC4)cc3c2C(C)C)cn(C)c1=O (stereo not drawn) [Example 269, 5-(3-isopropyl-5-(1-(1-(1-methyl-1H-pyrazol-4-yl)ethyl)piperidin-4-yl)-1H-indol-2-yl)-1,3-dimethylpyridin-2(1H)-one] | 4.6 nM | 35.5 nM | 5900 nM |
| COC(=O)c1cc(-c2[nH]c3ccc(C4CCNCC4)cc3c2C(C)C)cn(C)c1=O [Example 37, methyl 5-(3-isopropyl-5-(piperidin-4-yl)-1H-indol-2-yl)-1-methyl-2-oxo-1,2-dihydropyridine-3-carboxylate] | 182 nM | 458 nM | 2430 nM |
| Cc1c(-c2[nH]c3ccc(C4CCNCC4)cc3c2C(C)C)nn(C)c(=O)c1C [Example 17, 6-(3-isopropyl-5-(piperidin-4-yl)-1H-indol-2-yl)-2,4,5-trimethylpyridazin-3(2H)-one] | 12.2 nM | 21.1 nM | 597 nM |
